Source: PMC5218480 (PLoS ONE, 2017)

Test system: MV-4-11 cells
Test: Gene expression microarray analysis (Affymetrix PrimeView) and GSEA
Type: cell-based, human
Set-up: RFU PODN (11730768_x_at) / Fold change /veh PODN (11730768_x_at) / RFU LINC00158 (11744669_a_at) / Fold change /veh LINC00158 (11744669_a_at) / RFU DUSP10 (11751237_a_at) / Fold change /veh DUSP10 (11751237_a_at) / RFU ID3 (11757404_x_at) / Fold change /veh ID3 (11757404_x_at) / RFU PLEKHG5 (11737974_s_at) / Fold change /veh PLEKHG5 (11737974_s_at) / RFU LRRC4B (11730491_at) / Fold change /veh LRRC4B (11730491_at) / RFU GIMAP4 (11747438_a_at) / Fold change /veh GIMAP4 (11747438_a_at) / RFU KRT8 (11758183_x_at) / Fold change /veh KRT8 (11758183_x_at) / RFU CNN1 (11734310_a_at) / Fold change /veh CNN1 (11734310_a_at) / RFU VPS37D (11726825_at) / Fold change /veh VPS37D (11726825_at) / RFU C10orf10 (11716522_x_at) / Fold change /veh C10orf10 (11716522_x_at) / RFU KIR2DL2 /// KIR2DL4 /// KIR2DL5A /// KIR2DL5B /// KIR2DS1 /// KIR2DS2 /// KIR2DS3 /// KIR2DS4 /// KIR3DL3 /// KIR3DL3 /// KIR3DS1 (11738374_at) / Fold change /veh KIR2DL2 /// KIR2DL4 /// KIR2DL5A /// KIR2DL5B /// KIR2DS1 /// KIR2DS2 /// KIR2DS3 /// KIR2DS4 /// KIR3DL3 /// KIR3DL3 /// KIR3DS1 (11738374_at) / RFU C1QL1 (11718748_at) / Fold change /veh C1QL1 (11718748_at) / RFU TMPRSS4 (11747572_a_at) / Fold change /veh TMPRSS4 (11747572_a_at) / RFU HAMP (11756126_x_at) / Fold change /veh HAMP (11756126_x_at) / RFU RNFT2 (11725882_a_at) / Fold change /veh RNFT2 (11725882_a_at) / RFU NR4A2 (11747474_a_at) / Fold change /veh NR4A2 (11747474_a_at) / RFU ABCC12 (11746883_a_at) / Fold change /veh ABCC12 (11746883_a_at) / RFU TMEM136 (11760407_x_at) / Fold change /veh TMEM136 (11760407_x_at) / RFU CLDN22 /// WWC2 (11732394_at) / Fold change /veh CLDN22 /// WWC2 (11732394_at) / RFU HLA-DPB1 (11760878_x_at) / Fold change /veh HLA-DPB1 (11760878_x_at) / RFU SPINT1 (11716480_a_at) / Fold change /veh SPINT1 (11716480_a_at) / RFU GAP43 (11754022_s_at) / Fold change /veh GAP43 (11754022_s_at) / RFU A4GNT (11735810_at) / Fold change /veh A4GNT (11735810_at) / RFU PRB3 (11715151_x_at) / Fold change /veh PRB3 (11715151_x_at) / RFU TUBB4B (11761932_at) / Fold change /veh TUBB4B (11761932_at) / RFU CAPN14 (11732068_a_at) / Fold change /veh CAPN14 (11732068_a_at) / RFU TMCC2 (11721928_a_at) / Fold change /veh TMCC2 (11721928_a_at) / RFU IRGQ (11745062_a_at) / Fold change /veh IRGQ (11745062_a_at) / RFU FAM174B (11720279_a_at) / Fold change /veh FAM174B (11720279_a_at) / RFU TMPRSS4 (11748680_a_at) / Fold change /veh TMPRSS4 (11748680_a_at) / RFU FAM212B (11763350_a_at) / Fold change /veh FAM212B (11763350_a_at) / RFU PLEKHG5 (11743358_a_at) / Fold change /veh PLEKHG5 (11743358_a_at) / RFU ZSCAN30 (11745921_a_at) / Fold change /veh ZSCAN30 (11745921_a_at) / RFU CMKLR1 (11741424_a_at) / Fold change /veh CMKLR1 (11741424_a_at) / RFU LOC101060620 /// MAPK8IP1 (11723275_at) / Fold change /veh LOC101060620 /// MAPK8IP1 (11723275_at) / RFU SPTSSB (11747773_x_at) / Fold change /veh SPTSSB (11747773_x_at) / RFU PRSS12 (11739890_at) / Fold change /veh PRSS12 (11739890_at) / RFU BIN1 (11741810_x_at) / Fold change /veh BIN1 (11741810_x_at) / RFU WNT11 (11732464_a_at) / Fold change /veh WNT11 (11732464_a_at) / RFU C10orf10 (11716521_a_at) / Fold change /veh C10orf10 (11716521_a_at) / RFU C5orf56 (11738089_at) / Fold change /veh C5orf56 (11738089_at) / RFU CYB561 (11721691_x_at) / Fold change /veh CYB561 (11721691_x_at) / RFU ANKRD19P (11752326_a_at) / Fold change /veh ANKRD19P (11752326_a_at) / RFU OR2T12 /// OR2T33 /// OR2T8 (11738714_s_at) / Fold change /veh OR2T12 /// OR2T33 /// OR2T8 (11738714_s_at) / RFU VCAN (11748164_a_at) / Fold change /veh VCAN (11748164_a_at) / RFU JSRP1 (11732532_at) / Fold change /veh JSRP1 (11732532_at) / RFU KRTAP10-11 (11738290_x_at) / Fold change /veh KRTAP10-11 (11738290_x_at) / RFU MYO3A (11730013_a_at) / Fold change /veh MYO3A (11730013_a_at) / RFU EBF3 (11725865_a_at) / Fold change /veh EBF3 (11725865_a_at) / RFU CAMK2N1 (11719241_x_at) / Fold change /veh CAMK2N1 (11719241_x_at) / RFU C5orf56 (11738088_a_at) / Fold change /veh C5orf56 (11738088_a_at) / RFU OLFML3 (11715873_a_at) / Fold change /veh OLFML3 (11715873_a_at) / RFU LOC100653217 /// NTM (11731650_a_at) / Fold change /veh LOC100653217 /// NTM (11731650_a_at) / RFU MAPK11 (11762145_a_at) / Fold change /veh MAPK11 (11762145_a_at) / RFU FIZ1 (11724087_x_at) / Fold change /veh FIZ1 (11724087_x_at) / RFU OASL (11726364_x_at) / Fold change /veh OASL (11726364_x_at) / RFU SOX15 (11748057_x_at) / Fold change /veh SOX15 (11748057_x_at) / RFU CD79A (11719716_a_at) / Fold change /veh CD79A (11719716_a_at) / RFU HIST1H1D (11736915_at) / Fold change /veh HIST1H1D (11736915_at) / RFU CASKIN2 (11723855_a_at) / Fold change /veh CASKIN2 (11723855_a_at) / RFU LOC730098 (11760151_x_at) / Fold change /veh LOC730098 (11760151_x_at) / RFU OR4N2 (11742367_at) / Fold change /veh OR4N2 (11742367_at) / RFU PRRT2 (11749266_a_at) / Fold change /veh PRRT2 (11749266_a_at) / RFU SNX32 (11753110_a_at) / Fold change /veh SNX32 (11753110_a_at) / RFU CDHR5 (11726645_a_at) / Fold change /veh CDHR5 (11726645_a_at) / RFU RCAN1 (11760418_a_at) / Fold change /veh RCAN1 (11760418_a_at) / RFU FAM167A (11723789_a_at) / Fold change /veh FAM167A (11723789_a_at) / RFU FAM26E (11764081_at) / Fold change /veh FAM26E (11764081_at) / RFU ISYNA1 (11749810_s_at) / Fold change /veh ISYNA1 (11749810_s_at) / RFU ACY1 (11761880_at) / Fold change /veh ACY1 (11761880_at) / RFU 11764098_at / Fold change /veh 11764098_at / RFU SAMD14 (11745864_x_at) / Fold change /veh SAMD14 (11745864_x_at) / RFU NPB (11741838_a_at) / Fold change /veh NPB (11741838_a_at) / RFU TMPRSS6 (11731388_a_at) / Fold change /veh TMPRSS6 (11731388_a_at) / RFU KRTAP10-2 (11738614_at) / Fold change /veh KRTAP10-2 (11738614_at) / RFU ARHGAP8 /// PRR5-ARHGAP8 (11727945_x_at) / Fold change /veh ARHGAP8 /// PRR5-ARHGAP8 (11727945_x_at) / RFU KRTAP5-7 /// NADSYN1 (11734609_at) / Fold change /veh KRTAP5-7 /// NADSYN1 (11734609_at) / RFU RASL12 (11751679_a_at) / Fold change /veh RASL12 (11751679_a_at) / RFU CDKN2B (11736163_a_at) / Fold change /veh CDKN2B (11736163_a_at) / RFU PRF1 (11729649_at) / Fold change /veh PRF1 (11729649_at) / RFU, ZNF638 /// ZNF638-IT1 / Fold change vs veh, ZNF638 /// ZNF638-IT1 / RFU, PANK3 / Fold change vs veh, PANK3 / RFU, SH3YL1 / Fold change vs veh, SH3YL1 / RFU, ZEB2 / Fold change vs veh, ZEB2 / RFU, NRIP1 / Fold change vs veh, NRIP1 / RFU, PTTG1IP / Fold change vs veh, PTTG1IP / RFU, CAPN2 / Fold change vs veh, CAPN2 / RFU, MED14 / Fold change vs veh, MED14 / RFU, SNORA58 / Fold change vs veh, SNORA58 / RFU, C1orf63 / Fold change vs veh, C1orf63 / RFU, LRRFIP1 / Fold change vs veh, LRRFIP1 / RFU, NDUFAF7 / Fold change vs veh, NDUFAF7 / RFU, SLC12A2 / Fold change vs veh, SLC12A2 / RFU, IBTK / Fold change vs veh, IBTK / RFU, ESF1 / Fold change vs veh, ESF1 / Fold change vs veh, TMEM50B / RFU, TAOK1 / Fold change vs veh, TAOK1 / RFU, ACBD3 / Fold change vs veh, ACBD3 / RFU, TMA16 / Fold change vs veh, TMA16 / RFU, RWDD3 / Fold change vs veh, RWDD3 / RFU, BCAT1 / Fold change vs veh, BCAT1 / RFU, EDEM3 / Fold change vs veh, EDEM3 / RFU, TMEM33 / Fold change vs veh, TMEM33 / RFU, WDR75 / Fold change vs veh, WDR75 / RFU, AHCTF1 / Fold change vs veh, AHCTF1 / RFU, TFRC / Fold change vs veh, TFRC / RFU, ZDHHC17 / Fold change vs veh, ZDHHC17 / RFU, NOM1 / Fold change vs veh, NOM1 / RFU, ARL8B / Fold change vs veh, ARL8B / RFU, ZBTB11 / Fold change vs veh, ZBTB11 / RFU, TAMM41 / Fold change vs veh, TAMM41 / RFU, KIAA1704 /// LOC100996395 / Fold change vs veh, KIAA1704 /// LOC100996395 / RFU, ING1 / Fold change vs veh, ING1 / RFU, TRMT61B / Fold change vs veh, TRMT61B / RFU, FUBP3 / Fold change vs veh, FUBP3 / RFU, TP53 / Fold change vs veh, TP53 / RFU, TNKS2 / Fold change vs veh, TNKS2 / RFU, ZFP14 / Fold change vs veh, ZFP14 / RFU, ACTR2 / Fold change vs veh, ACTR2 / RFU, PPP3R1 / Fold change vs veh, PPP3R1 / RFU, PIK3R1 / Fold change vs veh, PIK3R1 / RFU, HNRNPA1 / Fold change vs veh, HNRNPA1 / RFU, RNF170 / Fold change vs veh, RNF170 / RFU, ZNF28 / Fold change vs veh, ZNF28 / RFU, RNGTT / Fold change vs veh, RNGTT / RFU, OGT / Fold change vs veh, OGT / RFU, BRD1 / Fold change vs veh, BRD1 / RFU, MARS / Fold change vs veh, MARS / RFU, ZNF655 / Fold change vs veh, ZNF655 / RFU, FAHD1 / Fold change vs veh, FAHD1 / RFU, BDP1 / Fold change vs veh, BDP1 / RFU, LRRCC1 / Fold change vs veh, LRRCC1 / RFU, ARID1A / Fold change vs veh, ARID1A / RFU, ZNF146 / Fold change vs veh, ZNF146 / RFU, ZNF330 / Fold change vs veh, ZNF330 / RFU, GPN3 / Fold change vs veh, GPN3 / RFU, C9orf123 / Fold change vs veh, C9orf123 / RFU, N4BP2L2 / Fold change vs veh, N4BP2L2 / RFU, ARFIP1 / Fold change vs veh, ARFIP1 / RFU, FAM179B / Fold change vs veh, FAM179B / RFU, BCL10 / Fold change vs veh, BCL10 / RFU, UHRF1BP1L / Fold change vs veh, UHRF1BP1L / RFU, BET1 / Fold change vs veh, BET1 / RFU, CNOT2 / Fold change vs veh, CNOT2 / RFU, ZNF268 / Fold change vs veh, ZNF268 / Fold change vs veh, ZNF507 / RFU, DGCR2 / Fold change vs veh, DGCR2 / RFU, WDSUB1 / Fold change vs veh, WDSUB1 / Fold change vs veh, HSP90B1 /// MIR3652 / RFU, ADSS / Fold change vs veh, ADSS / RFU, GK / Fold change vs veh, GK / RFU, ZNF148 / Fold change vs veh, ZNF148 / RFU, TAF9 / Fold change vs veh, TAF9 / RFU, SLC1A5 / Fold change vs veh, SLC1A5 / RFU, SLMO2 / Fold change vs veh, SLMO2 / RFU, ABCC4 / Fold change vs veh, ABCC4 / RFU, LOC101060439 /// RAP1B / Fold change vs veh, LOC101060439 /// RAP1B / RFU, RFX7 / Fold change vs veh, RFX7 / RFU, GTPBP10 / Fold change vs veh, GTPBP10 / RFU, CNEP1R1 / Fold change vs veh, CNEP1R1 / RFU, BIVM-ERCC5 /// ERCC5 / Fold change vs veh, BIVM-ERCC5 /// ERCC5 / RFU, ILF3 / Fold change vs veh, ILF3 / RFU 11762660_at / Fold change /veh 11762660_at / RFU VCAN (11757783_s_at) / Fold change /veh VCAN (11757783_s_at) / RFU DDX43 (11728927_at) / Fold change /veh DDX43 (11728927_at) / RFU KRT8 (11758188_x_at) / Fold change /veh KRT8 (11758188_x_at) / RFU NKD1 (11759106_at) / Fold change /veh NKD1 (11759106_at) / RFU SRD5A1 (11742802_a_at) / Fold change /veh SRD5A1 (11742802_a_at) / RFU TPSAB1 /// TPSB2 (11721975_s_at) / Fold change /veh TPSAB1 /// TPSB2 (11721975_s_at) / RFU GSTM3 (11746129_a_at) / Fold change /veh GSTM3 (11746129_a_at) / RFU IL23R (11737362_x_at) / Fold change /veh IL23R (11737362_x_at) / RFU TMEM51 (11727254_a_at) / Fold change /veh TMEM51 (11727254_a_at) / RFU PIWIL2 (11732686_x_at) / Fold change /veh PIWIL2 (11732686_x_at) / RFU ORM1 (11744905_x_at) / Fold change /veh ORM1 (11744905_x_at) / RFU CCDC152 (11743942_at) / Fold change /veh CCDC152 (11743942_at) / RFU ECM1 (11717891_a_at) / Fold change /veh ECM1 (11717891_a_at) / RFU IL23R (11748794_a_at) / Fold change /veh IL23R (11748794_a_at) / RFU TNFAIP8L3 (11732012_x_at) / Fold change /veh TNFAIP8L3 (11732012_x_at) / RFU MBOAT4 (11741988_at) / Fold change /veh MBOAT4 (11741988_at) / RFU 11764193_at / Fold change /veh 11764193_at / RFU TMEM53 (11763286_at) / Fold change /veh TMEM53 (11763286_at) / RFU MAGEB2 (11727129_at) / Fold change /veh MAGEB2 (11727129_at) / RFU TMEM200A (11744735_a_at) / Fold change /veh TMEM200A (11744735_a_at) / RFU CCDC152 (11751479_a_at) / Fold change /veh CCDC152 (11751479_a_at) / RFU FAM211A (11726209_a_at) / Fold change /veh FAM211A (11726209_a_at) / RFU RGS16 (11746705_a_at) / Fold change /veh RGS16 (11746705_a_at) / RFU VCAN (11755009_s_at) / Fold change /veh VCAN (11755009_s_at) / RFU RHOB (11743442_s_at) / Fold change /veh RHOB (11743442_s_at) / RFU RGS16 (11720943_a_at) / Fold change /veh RGS16 (11720943_a_at) / RFU RGS16 (11720944_at) / Fold change /veh RGS16 (11720944_at) / RFU, VPS4B / Fold change vs veh, VPS4B / RFU, CREB1 / Fold change vs veh, CREB1 / RFU, DNAJC13 / Fold change vs veh, DNAJC13 / RFU, GNAQ / Fold change vs veh, GNAQ / RFU, CDK5R1 / Fold change vs veh, CDK5R1 / RFU, ZRANB3 / Fold change vs veh, ZRANB3 / RFU, CUL4A / Fold change vs veh, CUL4A / RFU, CCNY / Fold change vs veh, CCNY / RFU, UFL1 / Fold change vs veh, UFL1 / RFU, COG3 / Fold change vs veh, COG3 / RFU, DIAPH2 / Fold change vs veh, DIAPH2 / RFU, SKA2 / Fold change vs veh, SKA2 / RFU, AFF3 / Fold change vs veh, AFF3 / RFU, LMF1 / Fold change vs veh, LMF1 / RFU, IPO11 / Fold change vs veh, IPO11 / RFU, DFFB / Fold change vs veh, DFFB / RFU, FOXP1 / Fold change vs veh, FOXP1 / RFU, CARD8 / Fold change vs veh, CARD8 / RFU, STRN3 / Fold change vs veh, STRN3 / RFU, ADK / Fold change vs veh, ADK / RFU, RASSF2 / Fold change vs veh, RASSF2 / RFU, WIPF1 / Fold change vs veh, WIPF1 / RFU, LARP1B / Fold change vs veh, LARP1B / RFU, RASA1 / Fold change vs veh, RASA1 / RFU, RB1 / Fold change vs veh, RB1 / RFU, PPFIA1 / Fold change vs veh, PPFIA1 / RFU, MAT2A / Fold change vs veh, MAT2A / RFU, CCT5 / Fold change vs veh, CCT5 / RFU, WDR92 / Fold change vs veh, WDR92 / RFU, CUX1 / Fold change vs veh, CUX1 / RFU, TTC7A / Fold change vs veh, TTC7A / RFU, TMEM135 / Fold change vs veh, TMEM135 / RFU, DEPTOR / Fold change vs veh, DEPTOR / RFU, CPM / Fold change vs veh, CPM / RFU, DNAJB6 / Fold change vs veh, DNAJB6 / RFU, CACNA2D3 / Fold change vs veh, CACNA2D3 / RFU, DTX4 / Fold change vs veh, DTX4 / RFU, TFCP2 / Fold change vs veh, TFCP2 / RFU, GMCL1 /// GMCL1P1 / Fold change vs veh, GMCL1 /// GMCL1P1 / RFU, AEBP2 / Fold change vs veh, AEBP2 / RFU, SNHG1 /// SNORD22 /// SNORD25 /// SNORD26 /// SNORD27 /// SNORD28 /// SNORD29 /// SNORD31 / Fold change vs veh, SNHG1 /// SNORD22 /// SNORD25 /// SNORD26 /// SNORD27 /// SNORD28 /// SNORD29 /// SNORD31 / Fold change (Aza/veh), C12orf56 (ProbeSet 11735607_a_at) / Fold change (ACY-1035/veh), C12orf56 (ProbeSet 11735607_a_at) / Fold change (Aza/veh), FGFR1OP (ProbeSet 11751329_s_at) / Fold change (ACY-1035/veh), FGFR1OP (ProbeSet 11751329_s_at) / Fold change (Aza/veh), VPS36 (ProbeSet 11739960_a_at) / Fold change (ACY-1035/veh), VPS36 (ProbeSet 11739960_a_at) / RFU SYPL1 (11715823_x_at) / Fold change /veh SYPL1 (11715823_x_at) / RFU IGFBP7 (11715501_s_at) / Fold change /veh IGFBP7 (11715501_s_at) / RFU REEP3 (11722064_at) / Fold change /veh REEP3 (11722064_at) / RFU IGLL1 (11728026_x_at) / Fold change /veh IGLL1 (11728026_x_at): dose or concentration left out as unconfirmed
Conditions: ProbeSet 11743510_at; LIST D

Nc1ncn([C@@H]2O[C@H](CO)[C@@H](O)[C@H]2O)c(=O)n1 [azacitidine]
RFU, UFL1: 314.03 RFU
